# Source: patent US20230183193A1, “4-DIFLUOROMETHYL BENZOYL AMIDES WITH HERBICIDAL ACTION” (BAYER CROPSCIENCE AKTIENGESELLSCHAFT, priority 2017, published 2023)
# Tests used:
# Assay type in all cases: in vivo
# [1] = system: Viola tricolor; assay: Pre-emergence herbicidal action, VIOTR; details: dosage 320 g/ha, scored visually after 3 weeks vs untreated controls
# In short: (§1)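 Percent herbicidal activity rated by eye 3 weeks after pre-emergence soil-surface application, compared with untreated pots. Seeds sat under sandy loam; sprays carried 0.2% wetting agent.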
# [2] = system: Abutilon theophrasti; assay: Post-emergence herbicidal action, ABUTH; details: 80 g/ha, Table D
# In short: (§2)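 Post-emergence spray; one-leaf stage (2–3 wk after sowing), sandy loam, greenhouse. WP/EC in water, 600 to […], +0.2% wetting agent. Visual % damage vs untreated at ~3 wk; 100% = plants dead.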
# [3] = system: Stellaria media; assay: Post-emergence herbicidal action, STEME; details: 80 g/ha, Table D
# In short: as §2
# [4] = system: Setaria viridis; assay: Pre-emergence herbicidal action, SETVI; details: dosage 320 g/ha, scored visually after 3 weeks vs untreated controls
# In short: as §1
# [5] = system: Amaranthus retroflexus; assay: Post-emergence herbicidal action, AMARE; details: 80 g/ha, Table D
# In short: as §2
# [6] = system: Cyperus serotinus; assay: Pre-emergence herbicidal action, CYPES; details: dosage 320 g/ha, scored visually after 3 weeks vs untreated controls
# In short: as §1
# [7] = system: Alopecurus myosuroides; assay: Pre-emergence herbicidal action, ALOMY; details: dosage 320 g/ha, scored visually after 3 weeks vs untreated controls
# In short: as §1
# [8] = system: Avena fatua; assay: Post-emergence herbicidal action, AVEFA; details: 80 g/ha, Table C
# In short: as §2
# [9] = system: Matricaria inodora; assay: Pre-emergence herbicidal action, MATIN; details: dosage 320 g/ha, scored visually after 3 weeks vs untreated controls
# In short: as §1
# [10] = system: ECHCG; assay: Post-emergence herbicidal action, ECHCG; details: 80 g/ha, Table C
# In short: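 Weed and crop plants grown in sandy loam in the greenhouse, treated at the one-leaf stage 2–3 weeks after sowing. Damage scored visually after about 3 weeks vs untreated controls (0% = control, 100% = dead).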
# [11] = system: Abutilon theophrasti; assay: Pre-emergence herbicidal action, ABUTH; details: dosage 320 g/ha, scored visually after 3 weeks vs untreated controls
# In short: as §1
# [12] = system: Pharbitis purpureum; assay: Post-emergence herbicidal action, PHBPU; details: 80 g/ha, Table D
# In short: as §2
# [13] = system: Stellaria media; assay: Pre-emergence herbicidal action, STEME; details: dosage 320 g/ha, scored visually after 3 weeks vs untreated controls
# In short: as §1
# [14] = system: Alopecurus myosuroides; assay: Post-emergence herbicidal action, ALOMY; details: 80 g/ha, Table C
# In short: as §2
# [15] = system: Viola tricolor; assay: Post-emergence herbicidal action, VIOTR; details: 80 g/ha, Table D
# In short: as §2
# [16] = system: Amaranthus retroflexus; assay: Pre-emergence herbicidal action, AMARE; details: dosage 320 g/ha, scored visually after 3 weeks vs untreated controls
# In short: as §1
# [17] = system: Setaria viridis; assay: Post-emergence herbicidal action, SETVI; details: 80 g/ha, Table C
# In short: as §2
# [18] = system: Avena fatua; assay: Pre-emergence herbicidal action, AVEFA; details: dosage 320 g/ha, scored visually after 3 weeks vs untreated controls
# In short: as §1
Structure (SMILES),herbicidal activity VIOTR [1] [%],herbicidal activity ABUTH [2] [%],Herbicidal activity STEME [3] [%],herbicidal activity SETVI [4] [%],herbicidal activity AMARE [5] [%],herbicidal activity CYPES [6] [%],herbicidal activity ALOMY [7] [%],herbicidal activity AVEFA [8] [%],herbicidal activity MATIN [9] [%],Herbicidal activity ECHCG [10] [%],herbicidal activity ABUTH [11] [%],Herbicidal activity PHBPU [12] [%],Herbicidal activity STEME [13] [%],herbicidal activity ALOMY [14] [%],herbicidal activity VIOTR [15] [%],herbicidal activity AMARE [16] [%],herbicidal activity SETVI [17] [%],herbicidal activity AVEFA [18] [%]
Cn1nnnc1NC(=O)c1ccc(C(F)F)c([S+](C)[O-])c1F (stereo not drawn) [Example 1-38],100,100,100,100,90,90,100,90,100,100,100,90,100,90,100,100,100,100
CCSc1c(C(F)F)ccc(C(=O)Nc2nnnn2CC)c1Br [Example 2-64],100,100,100,100,100,100,100,100,100,100,100,100,100,100,100,100,100,100
CCc1c(C(=O)Nc2nnnn2CC)ccc(C(F)F)c1SC [Example 2-13],100,100,100,100,100,100,100,90,100,90,100,100,100,80,100,100,100,100
CCn1nnnc1NC(=O)c1ccc(C(F)F)c(SC)c1Br [Example 2-61],100,100,100,100,90,100,100,90,100,90,100,100,100,90,100,100,90,100
CCS(=O)(=O)c1c(C(F)F)ccc(C(=O)Nc2nnnn2C)c1C1CC1 [Example 1-30],100,100,100,100,90,90,100,100,100,100,100,90,100,100,100,100,100,100
CCc1c(C(=O)Nc2nnc(C)o2)ccc(C(F)F)c1[S+](C)[O-] (stereo not drawn) [Example 7-12],100,100,100,100,100,100,100,90,100,100,100,90,100,90,100,100,90,100
CSc1c(C(F)F)ccc(C(=O)Nc2nnc(C)o2)c1Cl [Example 7-47],100,90,100,100,90,80,90,100,100,100,100,90,90,80,100,100,100,90
Cn1nnnc1NC(=O)c1ccc(C(F)F)c([S+](C)[O-])c1I (stereo not drawn) [Example 1-74],100,100,100,100,100,100,100,90,100,90,100,100,100,90,100,100,100,100
